Like-named read-outs stand apart in the source and are kept apart here.
What was measured:
female low libido = settings: cited from earlier work; for side effects: in vivo
ED = settings: cited from earlier work
[1] = system: penis or female genitalia; assay: Topical or transdermal administration of magnesium sulfate or forskolin to male and female subjects
Excerpt: The composition is generally applied generously to the penis and massaged thoroughly. In females, the composition may be applied to the female genitals and massaged. In various embodiments, the composition may also be applied on a penis or sex toy or suppository inserted into the vagina or ano-rectal region, or as a condom lubricant, penile lubricant, vaginal lubricant or anal lubricant.

[2] = cited from earlier work

CCCC[C@H](NC(C)=O)C(=O)N[C@H]1CC(=O)NCCCC[C@@H](C(=O)O)NC(=O)[C@H](Cc2c[nH]c3ccccc23)NC(=O)[C@H](CCCN=C(N)N)NC(=O)[C@@H](Cc2ccccc2)NC(=O)[C@H](Cc2cnc[nH]2)NC1=O [Bremelanotide]
side effects (female low libido): Nausea is a common side effect
effect on number of satisfying sexual events compared to placebo (female low libido; self-administered injection about 45 minutes before a sexual encounter): minimal effect

CCCCC[C@H](O)/C=C/[C@H]1[C@H](O)CC(=O)[C@@H]1CCCCCCC(=O)O [alprostadil]
efficacy in ED (ED; intraurethral deposition): not effective in all patients

CN1CCc2cccc3c2[C@H]1Cc1ccc(O)c(O)c1-3 [apomorphine]
efficacy in ED (ED; oral and sublingual therapies): neither compound has demonstrated efficacy across a broad range of subjects

O=c1[nH]c2ccccc2n1CCN1CCN(c2cccc(C(F)(F)F)c2)CC1 [flibanserin]
side effects (female low libido): sleepiness and fainting
effect compared to placebo (female low libido; oral pill taken daily): minimal compared to placebo

C=C[C@@]1(C)CC(=O)[C@]2(O)[C@@]3(C)[C@@H](O)CCC(C)(C)[C@@H]3[C@H](O)[C@H](OC(C)=O)[C@@]2(C)O1 [forskolin, 7beta-acetoxy-8, 13-epoxy-1a, 6β, 9a-trihydroxy-labd-14-en-11-one]
systemic side effects or drug interactions ([1]; human, in vivo): no systemic side effects or drug interactions
lipid solubility [2]: lipid-soluble
solubility in water ([2]; water): water soluble

O=[N+]([O-])OCC(CO[N+](=O)[O-])O[N+](=O)[O-] [glyceryl trinitrate (GTN), glyceryl trinitrate]
efficacy in ED and side effects (ED; patches applied to the penis): effective but produces side effects in both patient and partner

O=S(=O)([O-])[O-].[Mg+2] [magnesium sulfate]
systemic side effects or drug interactions ([1]; administered topically or by transdermal delivery): no systemic side effects or drug interactions
taste of magnesium in mouth after topical administration (increased blood levels) ([1]; topical administration): tasted magnesium in their mouth within one minute
testosterone and libido ([1]; topical or transdermal administration, males and females): increased testosterone with increased libido in both males and females lasting for several weeks
increase in penile length, size and turgidity versus control gel (KY jelly) ([1]; topical or transdermal application to the penis): significantly exceeds that obtained by topical or transdermal application of a control gel

Cc1ccc(N(CC2=NCCN2)c2cccc(O)c2)cc1 [phentolamine]
efficacy in ED (ED; oral and sublingual therapies): neither compound has demonstrated efficacy across a broad range of subjects

From patent US20240335371A1, “MAGNESIUM SULFATE AND FORSKOLIN FOR TREATMENT OF SEXUAL DISORDERS AND BENIGN PROSTATIC HYPERPLASIA” (State-of-the-Art Technologies, Inc., priority 2023, published 2024)
